# Source: publication PMC3147111 (European journal of immunology, 2010)
# Biological target: DRB1*1501 (Homo sapiens, UniProt P01903+P01911)
# Assay: biochemical
# Type: binding
smiles,measurement,value
CC(C)C[C@H](NC(=O)[C@H](Cc1ccc(O)cc1)NC(=O)[C@H](C)NC(=O)[C@H](CCCNC(=N)N)NC(=O)[C@H](CC(C)C)NC(=O)[C@H](CCC(N)=O)NC(=O)[C@H](CCC(=O)O)NC(=O)[C@H](C)NC(=O)[C@@H](N)CCC(=O)O)C(=O)N[C@@H](CC(=O)O)C(=O)NCC(=O)N[C@H](C(=O)NCC(=O)N[C@H](C(=O)N[C@@H](CCC(=O)O)C(=O)O)C(C)C)[C@@H](C)O [A3 152–166],IC50,48 nM
